Laboratory results taken from patent US12421243B2, “Pharmaceutically effective compounds inhibiting selectively the myosin 2 isoforms” (PRINTNET KERESKEDELMI ÉS SZOLGÁLTATÓ KFT., priority 2018, dated 2025).

Assays:
[1] = molecular target: recombinant Dictyostelium miozin (Dictyostelium) (Dictyostelium discoideum, UniProt P08799); test: actomyosin steady state ATPase measurement, Dictyostelium myosin; assay type: biochemical; details: for IC50: concentration required for semi-maximal inhibition of ATPase, read-out: IC50 (μM) Dicty; for Inhibition (%) Dicty: maximum inhibition, compounds in IC50 range 1-11 μM; for % inhibition. complete Dicty: maximum value of inhibition of ATPase activity; for inhibition at 5 µM: read-out: % inhibition at 5 μM (or 10 μM if racemate) Dicty; for inhibition at 50 µM: read-out: % inhibition at 50 μM (or 100 μM if racemate) Dicty
From the text: (§1) […]; (ii) the concentration required for semi-maximal inhibition.

[2] = system: isolated rabbit skeletal muscle myosin (skeletal); test: actomyosin steady state ATPase measurement, skeletal muscle myosin; assay type: biochemical; details: for % inhibition at 5 μM (or 10 μM if racemate) Skeletal: 5 μM (10 μM if racemate); for % inhibition at 5 μM (or 10 μM if racemate) Skeletal / % inhibition at 50 μM (or 100 μM if racemate) Skeletal: ATPase activity; for % inhibition at 50 μM (or 100 μM if racemate) Skeletal: 50 μM (100 μM if racemate); for IC50: concentration required for semi-maximal inhibition of ATPase; for % inhibition. complete Skeletal: maximum value of inhibition of ATPase activity
From the text: as §1

[3] = molecular target: recombinant human non-muscle myosin 2 NM2C (Homo sapiens, UniProt Q7Z406); test: actomyosin steady state ATPase measurement, NM2C; assay type: biochemical; details: for IC50: concentration required for semi-maximal inhibition of ATPase; for % inhibition. complete NM2C: maximum value of inhibition of ATPase activity; for inhibition at 5 µM: read-out: % inhibition at 5 μM (or 10 μM if racemate) NM2C, 5 μM (10 μM if racemate); for inhibition at 5 µM / inhibition at 50 µM: ATPase activity; for inhibition at 50 µM: read-out: % inhibition at 50 μM (or 100 μM if racemate) NM2C, 50 μM (100 μM if racemate)
From the text: as §1

[4] = molecular target: isolated smooth muscle myosin (UniProt P10587); assay type: biochemical, chamois; details: concentration required for semi-maximal inhibition of ATPase
From the text: (ii) the concentration required for semi-maximal inhibition.

[5] = vital parameters of live anesthetized rats monitored during isometric force measurement; assay type: in vivo; details: 6 mg i.p., anesthetized rat
Method: (§2) The maximum isometric force induced by the stimulation was determined after intraperitoneal injection of some of the compounds of the invention. During the measurement, the following parameters of live anesthetized rats were continuously monitored: • a) heart rate • b) blood flow in the neck arteries • c) respiratory frequency • d) blood oxygen saturation ratio

[6] = molecular target: isolated smooth muscle myosin (UniProt P10587); assay type: biochemical, chamois; details: for % inhibition at 5 μM (or 10 μM if racemate) Smooth: 5 μM (10 μM if racemate); for % inhibition at 5 μM (or 10 μM if racemate) Smooth / % inhibition at 50 μM (or 100 μM if racemate) Smooth: ATPase activity; for % inhibition at 50 μM (or 100 μM if racemate) Smooth: 50 μM (100 μM if racemate); for % inhibition. complete Smooth: maximum value of inhibition of ATPase activity
M. quadriceps femoris = test: isometric force measurement of live, anesthetized rat M. quadriceps femoris due to electrical stimulation; assay type: in vivo; details: 6 mg i.p.
Method: as §2, with “saturation ratio Results from live anesthetized rats are summarized in the table below.” for “saturation ratio”

[7] = molecular target: T1, isolated porcine cardiac ventricular myocardium (cardiac) (Sus scrofa, UniProt P79293); test: actomyosin steady state ATPase measurement, cardiac myosin; assay type: biochemical; details: for IC50: concentration required for semi-maximal inhibition of ATPase; for % inhibition. complete cardiac: maximum value of inhibition of ATPase activity; for inhibition at 5 µM: read-out: % inhibition at 5 μM (or 10 μM if racemate) cardiac, 5 μM (10 μM if racemate); for inhibition at 5 µM / inhibition at 50 µM: ATPase activity; for inhibition at 50 µM: read-out: % inhibition at 50 μM (or 100 μM if racemate) cardiac, 50 μM (100 μM if racemate)
T1 construct: isolated porcine cardiac ventricular myocardium (cardiac); from tissue; host or cells: porcine cardiac ventricle
T1 sequence (P79293 whole entry): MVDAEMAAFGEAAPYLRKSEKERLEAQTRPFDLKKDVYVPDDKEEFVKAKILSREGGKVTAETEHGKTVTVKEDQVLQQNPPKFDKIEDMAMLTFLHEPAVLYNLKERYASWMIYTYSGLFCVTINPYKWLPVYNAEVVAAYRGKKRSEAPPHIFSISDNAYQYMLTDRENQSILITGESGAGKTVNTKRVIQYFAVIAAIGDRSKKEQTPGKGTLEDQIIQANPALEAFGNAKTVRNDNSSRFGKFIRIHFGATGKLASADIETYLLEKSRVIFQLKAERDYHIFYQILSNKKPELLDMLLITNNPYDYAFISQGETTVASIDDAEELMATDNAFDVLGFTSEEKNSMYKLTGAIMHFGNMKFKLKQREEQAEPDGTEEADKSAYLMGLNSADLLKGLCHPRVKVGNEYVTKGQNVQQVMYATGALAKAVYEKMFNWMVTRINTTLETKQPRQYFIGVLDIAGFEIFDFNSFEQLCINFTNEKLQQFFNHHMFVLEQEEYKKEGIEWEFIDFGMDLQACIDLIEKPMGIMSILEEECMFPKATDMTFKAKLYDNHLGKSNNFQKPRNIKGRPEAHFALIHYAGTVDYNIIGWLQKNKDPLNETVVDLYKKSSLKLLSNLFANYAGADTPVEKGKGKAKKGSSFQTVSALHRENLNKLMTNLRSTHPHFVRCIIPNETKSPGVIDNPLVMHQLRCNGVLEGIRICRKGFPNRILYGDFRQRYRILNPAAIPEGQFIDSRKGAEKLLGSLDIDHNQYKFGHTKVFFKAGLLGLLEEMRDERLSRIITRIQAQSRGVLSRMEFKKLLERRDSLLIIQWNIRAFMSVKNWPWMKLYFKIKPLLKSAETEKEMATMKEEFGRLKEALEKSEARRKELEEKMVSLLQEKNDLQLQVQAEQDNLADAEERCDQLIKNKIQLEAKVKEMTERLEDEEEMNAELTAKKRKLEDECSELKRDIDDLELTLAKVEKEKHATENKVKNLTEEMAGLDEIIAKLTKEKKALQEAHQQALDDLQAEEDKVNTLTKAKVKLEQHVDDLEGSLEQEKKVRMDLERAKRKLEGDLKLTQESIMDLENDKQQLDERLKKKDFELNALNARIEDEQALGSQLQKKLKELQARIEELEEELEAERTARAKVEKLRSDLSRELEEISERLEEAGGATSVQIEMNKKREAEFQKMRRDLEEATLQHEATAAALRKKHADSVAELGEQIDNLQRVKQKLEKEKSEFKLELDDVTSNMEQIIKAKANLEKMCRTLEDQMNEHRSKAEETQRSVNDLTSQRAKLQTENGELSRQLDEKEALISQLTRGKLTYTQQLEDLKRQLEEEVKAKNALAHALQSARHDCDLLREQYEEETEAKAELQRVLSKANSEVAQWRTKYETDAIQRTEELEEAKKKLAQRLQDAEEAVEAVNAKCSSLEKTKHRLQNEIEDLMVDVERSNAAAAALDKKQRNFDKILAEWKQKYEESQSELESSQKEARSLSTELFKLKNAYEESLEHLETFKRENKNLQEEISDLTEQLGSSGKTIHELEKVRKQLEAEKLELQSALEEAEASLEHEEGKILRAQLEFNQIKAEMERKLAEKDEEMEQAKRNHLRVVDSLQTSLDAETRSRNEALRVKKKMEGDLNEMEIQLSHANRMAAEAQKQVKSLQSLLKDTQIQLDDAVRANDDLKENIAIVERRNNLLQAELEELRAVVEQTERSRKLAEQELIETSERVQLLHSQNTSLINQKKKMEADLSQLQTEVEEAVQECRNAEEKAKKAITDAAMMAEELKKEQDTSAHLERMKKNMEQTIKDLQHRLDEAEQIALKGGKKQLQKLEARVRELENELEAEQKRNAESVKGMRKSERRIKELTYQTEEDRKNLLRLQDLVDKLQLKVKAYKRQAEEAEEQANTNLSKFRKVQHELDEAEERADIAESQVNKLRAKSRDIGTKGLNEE
From the text: as §1

[8] = molecular target: recombinant human non-muscle myosin 2 NM2A (Homo sapiens, UniProt P35579); test: actomyosin steady state ATPase measurement, NM2A; assay type: biochemical; details: for IC50: concentration required for semi-maximal inhibition of ATPase; for % inhibition. complete NM2A: maximum value of inhibition of ATPase activity; for inhibition at 5 µM: read-out: % inhibition at 5 μM (or 10 μM if racemate) NM2A, 5 μM (10 μM if racemate); for inhibition at 5 µM / inhibition at 50 µM: ATPase activity; for inhibition at 50 µM: read-out: % inhibition at 50 μM (or 100 μM if racemate) NM2A, 50 μM (100 μM if racemate)
From the text: as §1

[9] = molecular target: recombinant human non-muscle myosin 2 NM2B (Homo sapiens, UniProt P35580); test: actomyosin steady state ATPase measurement, NM2B; assay type: biochemical
Sequence of recombinant human non-muscle myosin 2 NM2B (P35580 whole entry): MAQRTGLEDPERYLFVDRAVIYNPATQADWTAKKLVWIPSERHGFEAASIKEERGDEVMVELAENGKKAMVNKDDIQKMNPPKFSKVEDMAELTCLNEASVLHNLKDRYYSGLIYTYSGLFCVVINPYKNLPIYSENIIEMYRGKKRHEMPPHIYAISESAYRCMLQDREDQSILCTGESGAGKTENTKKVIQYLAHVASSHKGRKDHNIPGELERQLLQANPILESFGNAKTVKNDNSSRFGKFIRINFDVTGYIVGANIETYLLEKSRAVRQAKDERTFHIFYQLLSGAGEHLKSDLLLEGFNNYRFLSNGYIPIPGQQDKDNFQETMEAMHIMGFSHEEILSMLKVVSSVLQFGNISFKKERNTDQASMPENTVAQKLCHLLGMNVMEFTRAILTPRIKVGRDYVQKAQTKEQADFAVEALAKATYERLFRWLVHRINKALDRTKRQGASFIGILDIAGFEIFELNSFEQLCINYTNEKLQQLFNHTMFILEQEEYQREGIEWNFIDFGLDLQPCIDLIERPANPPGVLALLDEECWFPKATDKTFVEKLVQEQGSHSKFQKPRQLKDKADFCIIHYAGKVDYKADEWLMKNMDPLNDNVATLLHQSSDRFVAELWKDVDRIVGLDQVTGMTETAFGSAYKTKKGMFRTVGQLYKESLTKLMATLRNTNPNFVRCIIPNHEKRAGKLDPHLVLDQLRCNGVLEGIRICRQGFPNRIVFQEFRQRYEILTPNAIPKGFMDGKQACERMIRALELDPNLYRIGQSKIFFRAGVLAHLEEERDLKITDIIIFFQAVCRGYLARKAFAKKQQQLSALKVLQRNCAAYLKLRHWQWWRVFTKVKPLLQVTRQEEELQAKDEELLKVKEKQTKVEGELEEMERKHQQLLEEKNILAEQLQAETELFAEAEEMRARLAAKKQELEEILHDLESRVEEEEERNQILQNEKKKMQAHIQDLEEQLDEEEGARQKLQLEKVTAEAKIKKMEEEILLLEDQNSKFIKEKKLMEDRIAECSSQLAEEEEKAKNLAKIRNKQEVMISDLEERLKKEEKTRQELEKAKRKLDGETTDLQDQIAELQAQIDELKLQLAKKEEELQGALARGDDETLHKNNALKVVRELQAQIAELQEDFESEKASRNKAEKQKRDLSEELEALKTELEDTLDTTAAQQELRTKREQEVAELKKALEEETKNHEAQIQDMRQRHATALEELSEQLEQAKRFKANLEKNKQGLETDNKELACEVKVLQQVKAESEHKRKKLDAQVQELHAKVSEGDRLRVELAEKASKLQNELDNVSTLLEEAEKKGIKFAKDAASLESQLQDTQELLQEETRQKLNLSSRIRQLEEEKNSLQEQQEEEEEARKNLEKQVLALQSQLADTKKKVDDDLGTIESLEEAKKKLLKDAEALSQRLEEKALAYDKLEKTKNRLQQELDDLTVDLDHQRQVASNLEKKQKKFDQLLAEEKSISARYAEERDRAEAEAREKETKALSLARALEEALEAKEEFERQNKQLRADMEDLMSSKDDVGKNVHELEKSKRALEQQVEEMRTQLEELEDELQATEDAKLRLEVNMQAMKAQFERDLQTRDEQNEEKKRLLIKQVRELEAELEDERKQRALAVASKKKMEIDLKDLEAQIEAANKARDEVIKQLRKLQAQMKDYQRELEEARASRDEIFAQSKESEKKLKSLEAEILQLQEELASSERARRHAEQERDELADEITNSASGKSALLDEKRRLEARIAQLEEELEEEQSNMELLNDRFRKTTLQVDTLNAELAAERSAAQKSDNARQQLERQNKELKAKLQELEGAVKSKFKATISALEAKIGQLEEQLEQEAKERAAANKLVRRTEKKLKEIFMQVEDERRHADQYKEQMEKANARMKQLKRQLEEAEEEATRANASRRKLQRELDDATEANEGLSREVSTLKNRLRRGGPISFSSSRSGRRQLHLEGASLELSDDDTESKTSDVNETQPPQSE
From the text: as §1

[10] = solubility in PBS in the presence of 1% DMSO; assay type: physicochemical; details: phosphate buffered saline with 1% DMSO, aqueous buffer, kinetic from dmso stock, PBS w/o Mg, Ca

| Compound | IC50 [1] [µM] | % inhibition. complete Dicty [1] [%] | inhibition at 5 µM [1] [%] | inhibition at 50 µM [1] [%] | % inhibition at 5 μM (or 10 μM if racemate) Skeletal [2] [%] | % inhibition at 50 μM (or 100 μM if racemate) Skeletal [2] [%] | IC50 [2] [µM] | % inhibition. complete Skeletal [2] [%] | IC50 [3] [µM] | % inhibition. complete NM2C [3] [%] | inhibition at 5 µM [3] [%] | inhibition at 50 µM [3] [%] | IC50 [4] [µM] | % inhibition at 5 μM (or 10 μM if racemate) Smooth [6] [%] | % inhibition at 50 μM (or 100 μM if racemate) Smooth [6] [%] | % inhibition. complete Smooth [6] [%] | IC50 [7] [µM] | % inhibition. complete cardiac [7] [%] | inhibition at 5 µM [7] [%] | inhibition at 50 µM [7] [%] | other results |
| --- | --- | --- | --- | --- | --- | --- | --- | --- | --- | --- | --- | --- | --- | --- | --- | --- | --- | --- | --- | --- | --- |
| O=C1c2ccncc2N=C2N(c3ccc(OC(F)(F)F)cc3)CCC12O (centres unmarked) [Compound 238, 3a-Hydroxy-1-[4-(trifluoromethoxy)phenyl]-1H,2H,3H,3aH,4H-pyrrolo[2,3-b]1,7-naphthyridin-4-one] | 3.5 | 41 | 24 | 38 | 80 | 93 | 0.95 | 96 | 2.1 | 40 | 27 | 38 | 6.3 | 13 | 28 | 31 | 59 | 100 | 2 | 47 | Inhibition (%) Dicty [1]: 41%; Maximum change of vital parameters (%) heart rate [5]: 3%; Maximum change of vital parameters (%) oxygen saturation [5]: −12%; Maximum change of vital parameters (%) respiratory frequency [5]: −18%; Maximum change of vital parameters (%) blood flow ([5]; neck arteries): −10%; Maximum change in isometric force at rear leg (%) (M. quadriceps femoris): 40% |
| O=C1c2sccc2N=C2N(c3ccccc3)CCC12O (centres unmarked) [Compound 183, 7-Hydroxy-4-phenyl-10-thia-2,4-diazatricyclo[7.3.0.0^3,7]dodeca-1(9),2,11-trien-8-one] | 5 | 100 | 26 | 80 | 80 | 93 | 1 | 95 | 60 | 83 | 6 | 37 | 15 | 17 | 51 | 66 | 8 | 84 | 33 | 73 | IC50 [8]: 87 µM; % inhibition. complete NM2A [8]: 100%; inhibition at 5 µM [8]: 4%; inhibition at 50 µM [8]: 37%; IC50 ([9]; concentration required for semi-maximal inhibition of ATPase): 12 µM; % inhibition. complete NM2B ([9]; maximum value of inhibition of ATPase activity): 56%; inhibition at 5 µM ([9]; read-out: % inhibition at 5 μM (or 10 μM if racemate) NM2B, 5 μM (10 μM if racemate), ATPase activity): 16%; inhibition at 50 µM ([9]; read-out: % inhibition at 50 μM (or 100 μM if racemate) NM2B, 50 μM (100 μM if racemate), ATPase activity): 45% |
| N#Cc1ccc(N2CC[C@@]3(O)C(=O)c4ccsc4N=C23)cc1 [Compound 213, (9S)-4-{9-Hydroxy-8-oxo-4-thia-2,12-diazatricyclo[7.3.0.0^3,7]dodeca-1,3(7),5-trien-12-yl}benzonitrile] | 3.5 | 87 | 50 | 81 | 89 | 98 | 0.58 | 99 | 8 | 63 | 22 | 54 | 18 | 16 | 57 | 78 | 1.8 | 87 | 61 | 84 | solubility [10]: 410 µM; Inhibition (%) Dicty [1]: 87%; IC50 [8]: 23 µM; % inhibition. complete NM2A [8]: 74%; inhibition at 5 µM [8]: 13%; inhibition at 50 µM [8]: 51% |
